Measured values as given in patent EP1769677B1, “METHOD OF IDENTIFYING THERAPEUTIC COMPOUNDS WHICH CAN BE USED FOR THE TREATMENT AND/OR PREVENTION OF INFECTIONS AND DISEASES CAUSED BY HUMAN HERPESVIRUSES” (Universidad Aut Noma de Madrid, priority 2004, dated 2005).

Key:
human herpesviruses = test: Survival with acyclovir given ad libitum in the drink (vertical transmission model); type: in vivo, mice; settings: acyclovir ad libitum in drinking water, high dose (as printed, final daily dose 1.50 mg), from the day of the vaginal plug
Experimental: Assuming that a mouse drinks about 3 ml a day, 2 working dilutions ([…] so that the final daily dose was 0.75 mg, and […] so that the final daily dose was 1.50 mg) were used.

[1] = tested on: herpes simplex virus type 1 (HSV-1) of the KOS strain; test: Viral load in organs of mothers and progeny by quantitative PCR after acyclovir treatment of infected mothers; type: in vivo, mice
Experimental: All the animals included in the experimental process were 14-week old female mice of the C57Bl/6 lineage. Between two and three adult mice were used per analysis group and between 13 and 25 neonates, depending on the availability of animals. […] All the animals went through a quarantine period and were treated with strict precautions against contamination during inoculation and dissection. The animals were intraperitoneally infected with a dose 10^6 pfu of herpes simplex virus type 1 (HSV-1) of the KOS strain (provided by el Dr. L. Carrasco, Centro de Biologia Molecular Severo Ochoa, Universidad Autónoma of Madrid). […] The first group of mice was not given any treatment. […] Therefore the antiviral concentration administered per dose and mouse was 0.25 mg (10 mg/kg per mouse, far from the toxicity limit of 80 mg/kg cited above), with a total daily dose of 0.75 mg/day.
The dissected organs in the adult animals were the following: blood, ovaries, adrenal gland, spinal cord, brain, cerebellum and trigeminal ganglia. The entire brain was separated into three rough regions: midbrain, ventricles and cerebral cortex. In the neonates, the dissected organs were blood, spinal cord and encephalon. DNA was extracted using conventional methods (NucleoSpin®, Cat. K3053-2, ClonTech, USA). The viral load of the different organs was analyzed by means of quantitative PCR. […] Primers specific for the sequence of the viral polymerase (pol) gene were used to detect the virus (SEQ. ID. NO: 3 and SEQ. ID. NO: 4) (120 bp amplicon). The PCR conditions were one cycle of 95°C for 10 minutes, followed by 45 cycles at 95°C for 30 seconds, 55°C (for β-actin) or 60°C (for viral polymerase) for 30 seconds, and a last cycle of 72°C for 40 seconds. The virus concentration range used for optimizing the quantitative PCR standard curve was expressed as plaque forming units (pfu). For calibrating the β-actin gene, nanograms were used as the unit of this endogenous gene. The identity of the amplified products was checked by analysis of the denaturation curves, by gel electrophoresis and restriction analysis.

[2] = tested on: herpes simplex virus type 1 (HSV-1) of the KOS strain; test: Neonate mortality after acyclovir treatment of HSV-1 infected mothers (vertical mother-progeny transmission model); type: in vivo, mice; settings: neonates of HSV-1 infected mothers, 0.25 mg per dose three times a day, from five days before crossbreeding until birth
Experimental: All the animals included in the experimental process were 14-week old female mice of the C57Bl/6 lineage. Between two and three adult mice were used per analysis group and between 13 and 25 neonates, depending on the availability of animals. The experiments were performed strictly following the Guidance on the Operation of Animals (Scientific Procedures, Act 1986), supervised by personnel of the Animal house of the Centro de Biologia Molecular Severo Ochoa. All the animals went through a quarantine period and were treated with strict precautions against contamination during inoculation and dissection. The animals were intraperitoneally infected with a dose 10^6 pfu of herpes simplex virus type 1 (HSV-1) of the KOS strain (provided by el Dr. L. Carrasco, Centro de Biologia Molecular Severo Ochoa, Universidad Autónoma of Madrid). […] The first group of mice was not given any treatment. […] Therefore the antiviral concentration administered per dose and mouse was 0.25 mg (10 mg/kg per mouse, far from the toxicity limit of 80 mg/kg cited above), with a total daily dose of 0.75 mg/day.
After birth and sacrifice, the progeny survival rates and the mother and neonate viral loads were analyzed. The adult animals remained asymptomatic during the entire experimental process, suffering no mortality.

[3] = in vivo; cited from earlier work
[4] = oral acyclovir, daily dose 0.75 mg

In the case of `Nc1nc2c(ncn2COCCO)c(=O)[nH]1` [acyclovir], the “survival of the animals” value (human herpesviruses) is reported as “higher”, the “viral loads both in the mothers and in the progeny” value ([1]; acyclovir daily dose of 0.75 mg, both administration routes (oral and subcutaneous), Figure 7) is reported as “significant reduction” and the “viral levels in all the analyzed organs of the descendants” value ([1]; oral acyclovir to the mothers, daily dose 0.75 mg, blood, spinal cord, encephalon) is reported as “almost complete elimination”. The “virus levels in blood of the mothers” value [1, 4] was “virtually undetectable”, the “virus levels in the trigeminal ganglia of the mothers” value [1, 4] was “virtually undetectable” and the “levels of the virus in the progeny's CNS” value ([1]; subcutaneous acyclovir to mothers, daily dose 0.75 mg, Figure 7B) was “considerably lower levels of the virus”. The “levels of the virus in all the analyzed organs of the mother” value ([1]; subcutaneous acyclovir, daily dose 0.75 mg, Figure 7A) was “considerably lower levels of the virus”, the mortality ([2]; oral acyclovir to mothers, none of the 17 animals) was “no mortality was observed” and the mortality rate ([2]; subcutaneous acyclovir to mothers, 1 out of 25) was 4.0%. For the same compound, the toxicity limit [3] was 80 mg/kg.
